Columns and labels:
cell surface sialylation = test: Overall sialylation of cell surface glycoconjugates after analog supplementation; assay type: cell-based
sialic acid pathway = details: cited from earlier work; for efficiency relative to the unmodified sugar: sialic acid production as endpoint
host cells [1] = details: cited from earlier work
host cells [2] = details: cited from earlier work; for side effects (e.g., cytotoxicity): compared to perbutanoylated, 3,4,6-tributanoylated or peracetylated counterparts; for cytotoxicity over prolonged exposure: beyond 2 to 3 days, up to and within two weeks
[3] = test system: hexosamine biosynthetic pathway; details: cited from earlier work
GalNAc salvage pathway = details: cited from earlier work
[4] = test system: individual sites of N-glycosylation; details: cited from earlier work
[5] = test system: human protein integrin α4 stably expressed in a CHO line; test: Azido-sugar labeling of integrin α4 in CHO cells (click biotinylation, streptavidin blot); assay type: cell-based; details: 100 μM, 24 hours
Protocol: Whole cell lysate from cells treated with 100 μM 1,3,4-O-Bu3ManNAz for 24 hours and “click” chemistry biotinylated were probed with streptavidin (lane 1), and from the same whole cell lysate, integrin α4β1 was immunopurified using human […] antibody and probed with streptavidin (lane 2). Immunopurified integrin α4β1 was again incubated with the human anti-MUC1 antibody and re-purified (lane 3). The band in lane 4 was the same sample as lane 3 but probed with anti-human integrin α4.
FIG. 2 depicts the result of treating the sample of FIG. 1, lane 3, with PNGAse F and sialidase, with samples then visualized using streptavidin HRP.
The use of tri-butanoylated monosaccharides was examined, initially using 1,3,4-O-Bu3ManNAz to label integrin α4 in CHO cells.

## CC(=O)NC1C(O)OC(CO)[C@@H](O)[C@@H]1O (stereo partly shown) [ManNAc]
Cell surface sialylation
  increase in overall sialylation (cell surface / glycoconjugates): 5 to 10%
Sialic acid pathway
  concentration supplemented to the cell culture media for a robust increase in sialic acid production: up to 50 mM

## CCCC(=O)O.COc1cccc(C#CCON=C2CN3CCC2C3)c1 (stereo not shown) [n-butyrate]
Host cells [1]
  concentration required to elicit desired cell responses: ≥ 10 mM

## CCCC(=O)OC1OC(CO)[C@@H](OC(=O)CCC)[C@H](OC(=O)CCC)C1NC(C)=O (stereo partly shown) [1,3,4-O-Bu3GlcNAc]
Host cells [2]
  side effects (e.g., cytotoxicity): minimal side effects
[3]
  flux into the hexosamine biosynthetic pathway: high levels of flux

## CCCC(=O)OCC1OC(OC(=O)CCC)C(NC(C)=O)[C@@H](OC(=O)CCC)[C@@H]1OC(=O)CCC (stereo partly shown) [Bu4ManNAc, perbutanoylated ManNAc, reference compound]
Host cells [2]
  cytotoxicity over prolonged exposure: host cells died
Host cells [2]; within 2 or 3 days of treatment
  effect on cell growth: slowed cell growth
Sialic acid pathway
  efficiency relative to the unmodified sugar: ~2,100 fold

## CCCC(=O)OC1OC(CO)[C@H](OC(=O)CCC)[C@H](OC(=O)CCC)C1NC(C)=O (stereo partly shown) [1,3,4-O-Bu3GalNAc]
Host cells [2]
  side effects (e.g., cytotoxicity): minimal side effects
GalNAc salvage pathway
  flux into the GalNAc salvage pathway: high levels of flux

## CC(=O)NC1C(OC(C)=O)OC(COC(C)=O)[C@@H](OC(C)=O)[C@@H]1OC(C)=O (stereo partly shown) [Ac4ManNAc, peracetylated ManNAc]
Cell surface sialylation
  increase in overall sialylation (cell surface / glycoconjugates): 10 to 25%
Host cells [2]
  cytotoxicity over prolonged exposure: cytotoxicity over prolonged exposure to cells
Sialic acid pathway
  efficiency relative to the unmodified sugar: several hundred fold more efficient

## CCCC(=O)OC1OC(CO)[C@@H](OC(=O)CCC)[C@H](OC(=O)CCC)C1NC(C)=O (stereo partly shown) [1,3,4-O-Bu3ManNAc, tri-butanoylated ManNAc]
Cell surface sialylation
  increase in overall sialylation (cell surface / glycoconjugates): 50 to 75%
Host cells [2]
  whole molecule toxicity: lack “whole molecule” toxicity
Host cells [2]; in most cell lines
  growth inhibition: mild growth inhibition
Sialic acid pathway
  flux into the sialic acid pathway: high levels of flux
[4]; about ⅓ of sites
  increase in sialylation, about ⅓ of glycosylation sites with dramatic increases: ≥ 8 fold
  increase in sialylation, about ⅓ of glycosylation sites with modest increase: ≤ 2 fold
  level of sialylation, about ⅓ of glycosylation sites that did not respond: remained unchanged
[4]
  increase in degree of sialylation of specific N-glycans: ≥ 8 fold

## CCCC(=O)OC1OC(CO)[C@@H](OC(=O)CCC)[C@H](OC(=O)CCC)C1NC(=O)CN=[N+]=[N-] (stereo partly shown) [1,3,4-O-Bu3ManNAz]
[5]
  labeling of integrin α4: definitive labeling

Source: patent publication US11015215B2, “Use of high flux SCFA-derivatized monosaccharides in recombinant glycoprotein production” (The Johns Hopkins University, priority 2014, dated 2021)
